The values that follow come from patent US20210145983A1, “METHODS AND COMPOSITIONS OF INHIBITING CSF1R FOR TREATING ALLERGIC INFLAMMATION” (THE BOARD OF TRUSTEES OF THE UNIVERSITY OF ILLINOIS, priority 2018, published 2021).

The subject of one assay is IgE. As to conditions: cited from earlier work.
The subject of assay [1] is acute DRA induced murine model of asthma. Put plainly: acute DRA induced murine model of asthma. The assay is classed as in vivo, mouse. As to conditions: 10 mg/kg intraperitoneally on day 10, 12 and 14. An excerpt: B. Experimental Design. DRA triple allergens were delivered via intranasal route as depicted.

Chain of IgE (P01854 1-426 limits assumed): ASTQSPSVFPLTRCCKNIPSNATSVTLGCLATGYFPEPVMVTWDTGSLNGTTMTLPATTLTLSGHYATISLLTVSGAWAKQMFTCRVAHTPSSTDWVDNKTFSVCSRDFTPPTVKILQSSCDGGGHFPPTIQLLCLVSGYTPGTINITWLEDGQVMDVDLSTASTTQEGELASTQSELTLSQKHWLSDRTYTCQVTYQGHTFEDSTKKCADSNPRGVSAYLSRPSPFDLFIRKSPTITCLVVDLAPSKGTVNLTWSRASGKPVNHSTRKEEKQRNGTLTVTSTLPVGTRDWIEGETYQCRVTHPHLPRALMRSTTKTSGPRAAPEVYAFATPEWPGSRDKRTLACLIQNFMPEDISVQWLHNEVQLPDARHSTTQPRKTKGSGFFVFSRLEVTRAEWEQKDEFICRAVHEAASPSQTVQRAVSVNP

On to “omalizumab: a humanized monoclonal anti-IgE antibody”, for which the “control of asthma exacerbations” value with IgE (inner city children already sensitized to cockroach, Busse W W, et al. 2011) is listed as “significant benefit”. For the same compound, the “control of seasonal exacerbations” value with IgE (pre-seasonal treatment, poorly controlled asthmatics, Teach S J, et al. 2015) is recorded as “effective”.

Consider `FC(F)(F)c1ccc(CNc2ccc(Cc3c[nH]c4ncc(Cl)cc34)cn2)cn1` [PLX3397, 5-((5-chloro-1H-pyrrolo[2,3-b]pyridin-3-yl)methyl)-N-((6-(trifluoromethyl)pyridin-3-yl)methyl)pyridin-2-amine], for which, in assay [1], the “Th2 cytokine increase in BAL fluids” value was “attenuated”, the “allergic lung inflammation (lung pathology)” value is on record as “markedly reduced”, the “eosinophil recruitment to BAL fluid” value is “blocked” and the “serum IgE rise” value was “attenuated”.
